The test system of data set [1] is phenyl benzoquinone syndrome in mice. Put plainly: Phenyl benzoquinone syndrome (writhing test), analgesic activity. The conditions noted are these: for ED50: Mus musculus, po, read-out: Analgesic activity, inhibition of PBC-syndrome, ED50. It counts as in vivo, mouse.
Data set [2] has as its system rat's paw. Put plainly: Randall-Selitto-Test, pressure pain threshold in the rat's paw (antiphlogistic/analgesic). It counts as in vivo. The conditions noted are these: for ED50: Rattus norvegicus, sc.
The test system of data set [3] is mice. Put plainly: Acute toxicity, LD50 after i.p. administration. It counts as in vivo. How it is done: (§1) The toxicity of the 3-azidomethyl-2,9-dioxatricyclo[4,3,1,0^3,7 ] decanes of the formula (I) is extremely low. The LD50 in mice is in the range of between about 500 and about 700 mg/kg, when determined after i.p. administration of the compounds.
Data set [4] is described as follows: Acute toxicity, LD50 after i.p. administration. The conditions noted are these: mouse, in vivo, ip, mice. It counts as in vivo. As to the method: as §1
Where [5] appears, read: normal paw, read-out: Randall Selitto-test ED50, normal paw.
The mark [6] stands for this setting: oedema bearing paw, read-out: Randall Selitto-test ED50, oedema bearing paw.

Where two headings read alike, the source gives them in different places.

The ED50 is the midpoint of the dose-response relation. On to `COc1ccc2cc([C@H](C)C(=O)O)ccc2c1` [Naproxene, reference compound], for which the ED50 was found to be 30 mg/kg in data set [1] (mouse, p.o.); 250 mg/kg in data set [2] (setting [5]); 147 mg/kg in data set [2] (setting [6]).

On to `CCCCC1C(=O)N(c2ccccc2)N(c2ccccc2)C1=O` [Phenylbutazone, reference compound], for which the ED50 in data set [1] (mouse, p.o.) was > 30 mg/kg; in data set [2] (setting [5]) it was > 100 mg/kg; in data set [2] (setting [6]), 58 mg/kg.

Consider `COc1ccc2c(c1)c(CC(=O)O)c(C)n2C(=O)c1ccc(Cl)cc1` [Indomethazine, reference compound], for which the ED50 turned out to be 250 mg/kg in data set [2] (setting [5]) and 64 mg/kg in data set [2] (setting [6]).

The LD50 is the dose at which mortality reaches 50%. A lower LD50 goes with greater toxicity. As to `COC1OC2OC3(CN=[N+]=[N-])C(OC(C)=O)CC(C2C)C13` (stereo not drawn) [XXVI, 3-azidomethyl-4α-acetoxy-8-methoxy-10β-methyl-2,9-DTD], the LD50 in data set [3] was 574 mg/kg. For the same compound, the “Analgesic activity, inhibition of PBC-syndrome, ED50” value in data set [1] (mouse, p.o.) is given as < 3.2 mg/kg. Also, the “Randall Selitto-test ED50, normal paw” value in data set [2] (s.c., normal paw) is ~ 32 mg/kg. The “Randall Selitto-test ED50, oedema bearing paw” value in data set [2] (s.c., oedema bearing paw) was 15 mg/kg.

Consider `C=C1C2OC(OC)C3C1CC(OC(C)=O)C3(CN=[N+]=[N-])O2` (stereo not drawn) [XXV, 3-azidomethyl-4α-acetoxy-8-methoxy-10-methylene-2,9-DTD], for which the 50% effective dose (ED50) in data set [1] (mouse, p.o.) was ~56 mg/kg; in data set [2] (setting [5]), 100 mg/kg; in data set [2] (setting [6]), 100 mg/kg.

Consider `COC1OC2OC3(CN=[N+]=[N-])C(O)CC(C2C)C13` (stereo not drawn) [XXII, 3-azidomethyl-4α-hydroxy-8-methoxy-10β-methyl-2,9-DTD], for which the LD50 in data set [4] worked out at 571 mg/kg. In addition, the ED50 in data set [1] (mouse, p.o.) was 18.5 mg/kg; in data set [2] (setting [5]) it was > 32 mg/kg; in data set [2] (setting [6]), > 32 mg/kg.

For `COC1OC2OC3(CN=[N+]=[N-])C(=O)CC(C2C)C13` (stereo not drawn) [XVIII, 3-azidomethyl-8-methoxy-10β-methyl-2,9-DTD-4-one], the median lethal dose (LD50) in data set [4] came out at 632 mg/kg. Besides, the ED50 in data set [1] (mouse, p.o.) is < 56 mg/kg; in data set [2] (setting [5]), > 100 mg/kg; in data set [2] (setting [6]) it was > 100 mg/kg.

For the compound `CC(=O)Oc1ccccc1C(=O)O` [Apsirin, reference compound], the results for the ED50 in data set [1], in data set [2] (setting [5]) and in data set [2] (setting [6]) were 240 mg/kg, > 700 mg/kg and 440 mg/kg, respectively.

In data set [4], `COC1OC2OC3(CN=[N+]=[N-])C(OC(C)=O)CC(C2C)C13` (stereo not drawn) [X, 3-azidomethyl-4β-acetoxy-8-methoxy-10β-methyl-2,9-DTD] returned an LD50 of 739 mg/kg. In addition, the “Analgesic activity, inhibition of PBC-syndrome, ED50” value in data set [1] (mouse, p.o.) is ~ 10 mg/kg. Also, in data set [2] (setting [5]), the ED50 was > 32 mg/kg. Further, in data set [2] (s.c., oedema bearing paw), the “Randall Selitto-test ED50, oedema bearing paw” value was > 32 mg/kg.

Values taken from patent publication US4117148A, “2,9-Dioxatricyclo [4,3,1,0,3,7] decane derivatives, processes for their preparation and pharmaceutical compositions thereof” (Kali-Chemie Pharma GmbH., priority 1977, dated 1978).
